Assay results: US5190957A, “Treatment of multi-drug resistant tumors with quinolyl-and isoquinolyloxazole-2-ones” (Merrell Dow Pharmaceuticals Inc., priority 1992, dated 1993)
Like-named read-outs stand apart in the source and are kept apart here.

What was measured:
[1] = system: multidrug-resistant tumors; conditions: reported previously; cited from earlier work
[2] = system: CHO^R cells (vinblastine (VBL) resistant tumor cell line); test: Reversal of multidrug resistance (MDR) in CHO^R cells: cell growth with test compound with or without vinblastine (VLB); assay type: cell-based; conditions: 72 hr
Experimental: CHO^R cells were plated at a density of 1X105/35mm dish and were allowed to grow overight at 37° C. in a CO2 incubator. The medium was replaced with medium containing the compounds and vinblastine (0.2 μg/ml). The cells were allowed to grow for further 72 hr and the cell number was determined by Coulter counter after trypsiunization.

C=C[C@H]1C[N@@]2CC[C@H]1C[C@@H]2[C@@H](O)c1ccnc2ccc(OC)cc12 [Quinidine]
reversal of drug resistance in multidrug-resistant tumors [1]: reverse drug resistance

COc1ccc(CCN(C)CCCC(C#N)(c2ccc(OC)c(OC)c2)C(C)C)cc1OC (stereo not shown) [verapamil]
reversal of drug resistance in multidrug-resistant tumors [1]: reverse drug resistance

CC[C@]1(O)C[C@@H]2CN(CCc3c([nH]c4ccccc34)[C@@](C(=O)OC)(c3cc4c(cc3OC)N(C)[C@H]3[C@@](O)(C(=O)OC)[C@H](OC(C)=O)[C@]5(CC)C=CCN6CC[C@]43[C@@H]65)C2)C1 [VLB, vinblastine, reference compound]
effect on cell growth of VLB alone ([2]; VLB alone, 0.2 μg/ml): did not have any effect on cell growth

COc1ccc([C@@H]2Sc3ccccc3N(CCN(C)C)C(=O)[C@@H]2OC(C)=O)cc1 [diltiazem]
reversal of drug resistance in multidrug-resistant tumors [1]: reverse drug resistance

CCCc1[nH]c(=O)oc1-c1ccnc2ccccc12 [4-PROPYL-5-(4-QUINOLINYL)-2(3H)-OXAZOLONE]
inhibition at 0.1 µg/mL ([2]; 0.1 μg/ml compound + vinblastine 0.2 μg/ml, read-out: % Inhibition of Cell Growth, Compound + VLB): 4% | inhibition at 0.1 µg/mL ([2]; 0.1 μg/ml compound, no VLB, read-out: % Inhibition of Cell Growth, Compound Only): 0% | inhibition at 1 µg/mL ([2]; 1 μg/ml compound + vinblastine 0.2 μg/ml, read-out: % Inhibition of Cell Growth, Compound + VLB): 43% | inhibition at 1 µg/mL ([2]; 1 μg/ml compound, no VLB, read-out: % Inhibition of Cell Growth, Compound Only): 0% | inhibition at 5 µg/mL ([2]; 5 μg/ml compound + vinblastine 0.2 μg/ml, read-out: % Inhibition of Cell Growth, Compound + VLB): 93% | inhibition at 5 µg/mL ([2]; 5 μg/ml compound, no VLB, read-out: % Inhibition of Cell Growth, Compound Only): 0% | inhibition at 10 µg/mL ([2]; 10 μg/ml compound + vinblastine 0.2 μg/ml, read-out: % Inhibition of Cell Growth, Compound + VLB): 93% | inhibition at 10 µg/mL ([2]; 10 μg/ml compound, no VLB, read-out: % Inhibition of Cell Growth, Compound Only): 14%

COC(=O)[C@H]1[C@H]2C[C@@H]3c4[nH]c5cc(OC)ccc5c4CCN3C[C@H]2C[C@@H](OC(=O)c2cc(OC)c(OC)c(OC)c2)[C@@H]1OC [reserpine]
reversal of drug resistance in multidrug-resistant tumors [1]: reverse drug resistance
